Source: US20260297164A1, “ANTI-FIBROTIC PEPTIDES AND USES THEREOF” (Deackt, Inc., priority 2021, published 2026)

What was measured:
[1] = tested on: α-SMA in CD148-deficient (Ptprj−/−) lung fibroblasts; assay: α-SMA western blot in CD148-deficient lung fibroblasts with PI3K/mTOR inhibitors; format: cell-based, mouse; conditions: CD148-deficient cells, TGF-β1 10 ng/ml; wortmannin 50 nM or rapamycin 1 μM, 24 h
Experimental: FIG. 3. CD148 deficiency enhances PI3K/Akt/mTOR signaling which results in low autophagy, high p62 expression in lung fibroblasts. (A) Mouse lung fibroblasts were isolated from Ptprj^fl/fl Col1a2^Cre-ER(T)+/0 mice (Ptprj−/−) and Col1a2^Cre-ER(T)+/0 mice (WT) and then treated with 4-OHT (1 μM) for 24 h. After 4-OHT treatment, cells were exposed to TGF-β1 (10 ng/ml) for 24 h. After stimulation, cells were harvested, and the expression of p-p85 (Tyr458), p-Akt (Ser473), pmTOR (Ser2448), p-p70 S6 kinase (Thr389), p-S6 ribosomal protein (Ser235/236) and CD148 (n=4 for each condition) in lysates was determined by Western immunoblotting and corresponding densitometry (ImageJ software). Data were normalized to corresponding dephospho-forms or GAPDH. (B) WT and Ptprj−/− cells were stimulated with TGF-β1 (10 ng/ml) for 24 h. Then cells were lysed and LC3-I and -II and p62 were measured by western blot (n=4). […] Then, autophagy flux was measured by LC3-II accumulation in the absence or presence of lysosomal acidification inhibitor chloroquine (25 μM) at 2, 4 and 6 h (n=4). […] LC3 puncta positive cells were quantified using ImageJ (D). […]
Polyacrylamide gel electrophoresis and immunoblotting were performed according to standard methods. […] The signals were detected by ECL (Thermo Fisher Scientific, Waltham, MA). […]

[2] = tested on: Col1a1 expression in CD148-deficient (Ptprj−/−) lung fibroblasts; assay: Col1a1 qPCR in CD148-deficient lung fibroblasts with NF-κB inhibitor; format: cell-based, mouse; conditions: CD148-deficient cells, TGF-β1 10 ng/ml; Bay 11-7082 10 μM
Experimental: FIG. 4. CD148 deficiency enhances PI3K/Akt/mTOR signaling which results in enhanced NF-κB activation in lung fibroblasts. (A) WT and Ptprj−/− cells were stimulated with TGF-β1 (10 ng/ml) for 24 h. Cells were lysed and p-IKKα/β, p-IκB and IκB were measured by western blot (n=4). GAPDH was the standard. Bar graphs at right are the quantitation of corresponding proteins. (B) WT and Ptprj−/− cells were stimulated with TGF-β1 (10 ng/ml) for 24 h. Cells were subjected to cytosol and nuclear protein fractionation. The p65 (NF-κB subunit) nuclear translocation was measured by western blot (n=3). β-actin and PCNA were used as cytosolic and nuclear markers, respectively. Bar graphs at right are the quantitation of corresponding proteins. p65 cytosolic/nuclear ratio is shown (far right). Data are mean±s.e.m. *P<0.05, by Kurskal-Wallis non-parametric test (C-D) WT or Ptprj−/− cells were transfected with scr or shp62 (lentivirus). Cells were stimulated with TGF-β1 (10 ng/ml) in the presence or absence or wortmannin (wort, 50 nM) or rapamycin (rapa, 1 μM). At 24 h cells were harvested and subjected to qPCR for Col1a1 or Acta2 (n=5). […] Luciferase activity were measured as described in methods (n=4 or 7). […] (F) WT or Ptprj−/− cells were stimulated with TGF-β1 (10 ng/ml) in the presence or absence of the NF-κB inhibitor Bay 11-7082 (10 μM). mRNA levels of Col1a1 were measured by qPCR (n=5 for each condition). […]

[3] = tested on: IPF-derived lung fibroblasts; assay: FasL-induced cell death (MTT cell viability); format: cell-based, human; conditions: FasL 100 and 200 ng/ml, 24 h
Experimental: FIG. 1. […] (A) CD148 protein expression levels were determined in lung homogenates from control (n=5) and IPF (n=5) patients. (Graphic) Densitometry (by ImageJ software). (B) Lung specimens from control (n=9) and IPF (n=10) patients were homogenized and subjected to total RNA isolation. Ptprj (CD148) mRNA levels were assessed using qPCR. (C) Single cell suspensions of control (n=6) and IPF (n=7) were enriched for fibroblasts. mRNA expression of CD148 in fibroblast-enriched cell populations were assessed using qPCR. (D) Representative fluorescence microscopy images of CD148 (Cy3, red), Vimentin (GFP, green) and DAPI (blue) in control (n=4) and IPF lung tissue (n=5). Scale bar=100 μm. […] CD148 fluorescence intensity was quantified by ImageJ. […] (E) CD148 protein levels were measured by western blot (n=3). (F) mRNA levels of fibronectin (Fn) and Collagen 1a1 (Col1a1) were measured using qPCR (n=5). […] After treatment, cell viability was determined using the MTT assay (n=5). […] Clusters labeled as fibroblast and myofibroblast were extracted from our previously published scRNA-seq data set and analysed using R-program. […] P values were calculated by Mann-Whitney unpaired test. (L) mRNA expression of CD148 in sorted AT1 and AT2 cells were assessed using qPCR. […] After treatment, cell viability was assessed with the MTT assay (n=4). […]
FIG. 6. […] (B) mRNA levels of Fn and Col1a1 were measured by qPCR (n=5). […]

Row | Molecule | increase of a-SMA in response to TGF-β1 [1] | other results
1 | COC[C@H]1OC(=O)c2coc3c2[C@@]1(C)C1=C(C3=O)[C@@H]2CCC(=O)[C@@]2(C)C[C@H]1OC(C)=O [wortmannin] | attenuated | 
2 | CO[C@H]1C[C@@H]2CC[C@@H](C)[C@@](O)(O2)C(=O)C(=O)N2CCCC[C@H]2C(=O)O[C@H]([C@H](C)C[C@@H]2CC[C@@H](O)[C@H](OC)C2)CC(=O)[C@H](C)/C=C(\C)[C@@H](O)[C@@H](OC)C(=O)[C@H](C)C[C@H](C)/C=C/C=C/C=C/1C [rapamycin] | attenuated | 
3 | Cc1ccc(S(=O)(=O)/C=C/C#N)cc1 [Bay 11-7082] |  | TGF-β1-dependent increase in Col1a1 expression [2]: inhibited
4 | FasL: Soluble recombinant human FasL (protein, UniProt P48023 103-281, looked up, extracellular domain soluble recombinant) extracellular domain: QLFHLQKELAELRESTSQMHTASSLEKQIGHPSPPPEKKELRKVAHLTGKSNSRSMPLEWEDTYGIVLLSGVKYKKGGLVINETGLYFVYSKVYFRGQSCNNLPLSHKVYMRNSKYPQDLVMMEGKMMSYCTTGQMWARSSYLGAVFNLTSADHLYVNVSELSLVNFEESQTFFGLYKL |  | cell death induced by Fas ligand [3]: resistant to cell death
